Publication PMC8764613, “Engineering of CYP153A33 With Enhanced Ratio of Hydroxylation to Overoxidation Activity in Whole-Cell Biotransformation of Medium-Chain 1-Alkanols” (Frontiers in Bioengineering and Biotechnology, 2022)

Molecular target: T1, CYP153A33 (Marinobacter nauticus, UniProt A1TY82)
T1 construct: gene Maqu_0600; co-expressed with P. putida CamA/CamB and E. coli FadL in E. coli BW25113(DE3) delta-fadD; with Putidaredoxin (Pseudomonas putida); Putidaredoxin reductase CamA (Pseudomonas putida)
T1 sequence (A1TY82 1-470): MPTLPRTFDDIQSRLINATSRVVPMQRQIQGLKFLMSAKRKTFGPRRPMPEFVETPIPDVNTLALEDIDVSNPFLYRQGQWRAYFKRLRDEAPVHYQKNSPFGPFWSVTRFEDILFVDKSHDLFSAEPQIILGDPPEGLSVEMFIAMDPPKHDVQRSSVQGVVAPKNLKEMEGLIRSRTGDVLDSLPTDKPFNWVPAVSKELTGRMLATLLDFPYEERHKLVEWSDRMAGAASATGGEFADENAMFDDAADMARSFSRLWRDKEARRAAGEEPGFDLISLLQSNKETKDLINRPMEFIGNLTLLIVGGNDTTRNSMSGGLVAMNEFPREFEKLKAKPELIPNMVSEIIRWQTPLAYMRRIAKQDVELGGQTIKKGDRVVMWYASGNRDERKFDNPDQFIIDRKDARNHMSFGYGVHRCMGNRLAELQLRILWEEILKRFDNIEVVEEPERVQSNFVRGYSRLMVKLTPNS
Test: whole-cell biotransformation, GC analysis of products
Assay type: cell-based
Settings: 10 mM substrate, pH 7.0, 30 °C, resting E. coli cells OD600 30 with 1% glucose, CamA/CamB and FadL co-expressed; product alpha,omega-dodecanediol

Compound: CCCCCCCCCCCCO [A, 1-dodecanol]
- whole-cell biotransformation, GC analysis of products: CYP153A33-encoding gene was co-expressed with CamAB redox proteins for the whole-cell biotransformation of 1-dodecanol
